Patent US8633325B2, “Method for making insect repellent composition” (E I du Pont de Nemours and Company, priority 2002, dated 2014)
Several values for one entry are separate records, joined by “and”; a condition that tells them apart may be missing. Identical values can stand only once.

Experiments:
[1] = system: deer tick Ixodes scapularis; assay: tick repellency on forearms of human volunteers; assay type: in vivo; details: for statistical comparison of protection times (ANOVA): 30% (w/v); for Mean complete protection time (SEM): 30% (w/v) in isopropanol, 25 μl topically on 4 cm circle
Procedure: A volume of 25 μl of each compound (30% (w/v) in isopropanol) was applied within 4 cm diameter circles drawn on the left forearms of six male human volunteers. Each volunteer had two repellents applied individually within two circles on this forearm; a single 4 cm diameter circle drawn on the other arm was left untreated to act as a control for tick attractiveness. Laboratory-reared unfed nymphs of the deer tick Ixodes scapularis were brought within 1 mm of the untreated circles on cotton buds (Q-tip®). If normal questing behavior was observed, and/or the insect crawled onto the untreated area, it was deemed qualified and then presented to a treated area. A qualified tick which quested at or crawled onto the treated area within 60 s was recorded as having not been repelled. […] Additionally, a qualified tick that crawled onto the treated area but fell off within an additional 60 s was recorded as repelled. Each volunteer had 5 qualified ticks offered to each treated circle at approximately hourly intervals. Exposures continued until 3 out of any group of 5 offered ticks were deemed ‘attracted’. The first non-repelled tick was defined as the first attracted tick which was followed by a second attracted tick within the same or following exposure period. The time of the first confirmed attracted tick was deemed to be the time at which complete repellency ‘broke down’ for that volunteer.

[2] = system: stable flies (Stomoxys calcitrans); assay: in vitro membrane repellency test against stable flies; assay type: in vivo; details: 1% (w/v); for Mean Number of Landings (SEM): 20 minute test; for Mean Number of Landings (SEM) / Mean percentage repellency as calculated from the ANOVA: five replicates; for Mean percentage repellency as calculated from the ANOVA: versus IPA control
Procedure: (§1) Approximately 250 female Aedes aegypti mosquitoes were introduced into a chamber containing 5 wells, each covered by a Baudruche (animal intestine) membrane. Wells were filled with bovine blood, containing sodium citrate (to prevent clotting) and ATP (72 mg ATP disodium salt per 26 ml of blood), and heated to 37° C. A volume of 25 μl of isopropyl alcohol, containing one of the test specimens shown in Table 2, was applied to each membrane.
(§2) After 5 min, 4 day-old female mosquitoes were added to the chamber. The number of mosquitoes probing the membranes for each treatment was recorded at 2 min intervals over 20 min. Each datum represents the mean of three replicate experiments.
(§3) Percentage repellency was calculated for each repellent treatment at each observation time using the following equation: %Repellency=100−[(T/C)×100] where: • T=the mean number of mosquitoes probing a treated well for that replicate at time tx • C=the mean number of mosquitoes probing the IPA control well at time tx The resulting percentages were then arcsine transformed and an ANOVA was conducted using the calculated repellency from all five replicates. Multiple comparisons of means were conducted using the Student-Newman-Keuls test. The mean arcsines from ANOVA were then converted back into percentages.
DHN derived from hydrogenation of trans,cis-nepetalactone (consisting principally of 1S,9S,5R,6R-5,9-dimethyl-3-20 oxabicyclo[4.3.0]nonan-2-one; Formula 4), designated “Experimental Sample #1”, and the mixture of dihydronepetalactones prepared according to Example 2 (designated Experimental Sample #2; mDHN), were tested for repellency against Stomoxys calcitrans, essentially as described in Example 3. The DHN used here differed from that prepared in Example 4 in that it was derived from hydrogenation (using a Pd/SrCO3 catalyst) of trans,cis-nepetalactone crystallized from commercial oil (Berjé, NJ). In these experiments, an additional positive control compound was included, namely p-menthane-3,8-diol (PMD), obtained from Takasago International Corp. (USA), Rockleigh, N.J. The experimental design is summarized in Table 10, and all data presented is an average of five replicate experiments.

[3] = system: unfed adult female A. albimanus; assay: in vitro membrane repellency test against anopheles mosquitoes; assay type: in vivo, Anopheles albimanus; details: 1% (w/v); for Mean Number of Probes (SEM): 20 minute test; for Mean Number of Probes (SEM) / Mean percentage repellency as calculated from the ANOVA: five replicates; for Mean percentage repellency as calculated from the ANOVA: versus IPA control
Procedure: as §1, §2, §3
DHN derived from hydrogenation of trans,cis-nepetalactone (consisting principally of 1S,9S,5R,6R-5,9-dimethyl-3-oxabicyclo[4.3.0]nonan-2-one; Formula 4) designated “Experimental Sample #1”, and the mixture of dihydronepetalactones prepared according to Example 2 (designated as “Experimental Sample #2”; mDHN) were tested for repellency against one hundred unfed adult female A. albimanus, essentially as described in Example 3. The DHN used here differed from that prepared in Example 4 in that it was derived from hydrogenation (using a Pd/SrCO3 catalyst) of trans,cis-nepetalactone crystallized from commercial oil (Berjé, Bloomfield, N.J.). PMD was again included as a further control. The experimental design is summarized in Table 13, and all data presented is the average of five replicate experiments.

[4] = system: female Aedes aegypti mosquitoes; assay: in vitro membrane repellency test, probing of blood-filled wells; assay type: in vivo; details: for Mean percentage repellency as calculated from the ANOVA: versus IPA control
Procedure: as §1, §2
The dihydronepetalactone prepared in Example 4, Formula 4, was tested for repellency against Aedes aegypti mosquitoes essentially as described in Example 3. The experimental design is summarized in Table 6, and all data presented is from five replicate experiments.
as §3

[5] = system: female Anopheles albimanus mosquitoes; assay: mosquito repellency on forearms of human volunteers (test cage); assay type: in vivo; details: for Mean complete protection time (h) (SEM): 1.0 ml on 250 cm^2 forearm
Procedure: The DHN derived from hydrogenation of trans,cis-nepetalactone (consisting principally of 1S,9S,5R,6R-5,9-dimethyl-3-oxabicyclo[4.3.0]nonan-2-one; Formula 4), prepared as in Example 7, and the mixture of dihydronepetalactones prepared according to Example 2, were tested for repellency against A. albimanus, with DEET included in the test as a positive control, using adult human volunteers. Test cages (2×2×2 feet) with two sleeved entry ports on each of two opposite sides were used, with a hand rest in the center. The sides and top were screened and the base was equipped with a mirror to facilitate observations. Two hundred adult female mosquitoes, which had never received a blood meal and which had been deprived of their normal diet of 10% sucrose 24 h prior to use, were released into the test cage. Each volunteer was pre-qualified as attractive through having 10 insects land on their untreated forearms within 30 s of insertion into the cage.
A volume of 1.0 ml of each compound (either 5% or 10% (w/v) in isopropanol) was applied to 250 cm^2 areas on the forearms of six male human volunteers, the remainder of the limbs having been made inaccessible to insects. Each volunteer had different repellents applied individually onto each forearm. After allowing the applied repellents to dry for 30 min, the forearms were placed into the test cage for 5 min periods at 30 min intervals, and the number of mosquitoes probing or biting during each exposure period recorded. Breakdown of repellency was recorded for each repellent on each volunteer. Breakdown was defined as the time at which the first confirmed bite occurred; the first confirmed bite was defined as a bite which was followed by a second bite either within the same or the next exposure period. The data is presented in Table 17 as mean complete protection time.

[6] = system: Monomorium destructor ants; details: after 25 seconds of exposure to vapors; cited from earlier work
[7] = 1% (w/v), 20 minute observation period, Example 5, five replicates
[8] = 1% (w/v), Example 5, five replicates

SMILES	statistical comparison of protection times (ANOVA) [1]	Mean complete protection time (SEM) [1]	repellency comparison between treatments (ANOVA) [2]	Mean Number of Landings (SEM) [2]	Mean percentage repellency as calculated from the ANOVA [2]	repellency comparison between treatments (ANOVA) [3]	Mean Number of Probes (SEM) [3]	Mean percentage repellency as calculated from the ANOVA [3]	Mean Number of Probes (SEM) [4, 7]	time until mosquito probing initiated (probing density over time, FIG. 9) ([4]; 1% (w/v), Example 5)	Mean Time (min) (SEM) to "First probe" [4, 8]	Mean percentage repellency as calculated from the ANOVA [4, 8]	Mean complete protection time (h) (SEM) ([5]; 5% (w/v) in isopropanol)	Mean complete protection time (h) (SEM) ([5]; 10% (w/v) in isopropanol)	also measured
CCN(CC)C(=O)c1cccc(C)c1 [DEET, N,N-diethyl-m-toluamide]	statistically indistinguishable in the longevity of their repellency	124 min and 124.0 (69.95) min	performed statistically equally well	17.8 (4.96)	55.5%	statistically equal in efficacy	50.4 (13.01)	13.3%	4.8 (3.2)	6 min	14.8 min and 14.8 (3.2) min	92.4%	4.0 (0.5) h	6.2 (0.63) h	Mean Time (min) (SEM) to "First probe" ([4]; 1% (w/v) in isopropyl alcohol, 25 μl on membrane, Example 3, three replicates): 12 min and 12.0 (0.0) min; Mean Number of Probes (SEM) ([4]; 1% (w/v), over 20 min, Example 3, three replicates): 4.55 and 4.55 (0.29)
C[C@H]1COC(=O)[C@@H]2[C@@H]1CC[C@@H]2C [DHN, (1S,9S,5R,6R)-5,9-dimethyl-3-oxabicyclo[4.3.0]nonan-2-one]	statistically indistinguishable in the longevity of their repellency	109 min and 109.0 (58.64) min	performed statistically equally well	21.2 (3.35)	43.2%	statistically equal to DEET	38.0 (9.71)	32.9%	4.0 (2.16)	10 min	16.0 (2.09) min	96.1%	1.8 (0.12) h	3.5 h and 3.5 (0.29) h	Mean Number of Probes (SEM) ([4]; 0.2% (w/v), 20 minute observation period, Example 5, five replicates): 23.2 (5.97); Mean Time (min) (SEM) to "First probe" ([4]; 0.2% (w/v), Example 5, five replicates): 8.4 (1.16) min; Mean Time (min) (SEM) to "First probe" ([4]; 0.2% (w/v), Example 5, five replicates, listed as dihydronepetalactone): 8.4 min; Mean Number of Probes (SEM) ([4]; 0.5% (w/v), 20 minute observation period, Example 5, five replicates): 16.2 (5.49); Mean Time (min) (SEM) to "First probe" ([4]; 0.5% (w/v), Example 5, five replicates): 9.6 (2.48) min; Mean Time (min) (SEM) to "First probe" ([4]; 0.5% (w/v), Example 5, five replicates, listed as dihydronepetalactone): 9.6 min; Mean percentage repellency as calculated from the ANOVA ([4]; 0.5% (w/v), Example 5): 66.7%; repellency rank and statistical comparison with 1% DEET ([4]; 1% (w/v), Example 5, ANOVA, Student-Newman-Keuls): ranked first in repellency, and was statistically indistinguishable from 1% DEET; Mean Time (min) (SEM) to "First probe" ([4]; 1% (w/v), Example 5, five replicates, listed as Dihydronepetalactone): approximately 16 min; statistical comparison of protection times (ANOVA) ([5]; 5% and 10% (w/v)): provided lesser protection times
CC1CCC(C(C)(C)O)C(O)C1 (centres unmarked) [PMD, p-menthane-3,8-diol]				33.6 (9.21)	4.7%	statistically equal in efficacy	47.2 (8.57)	11.5%							time after which compound became ineffective in repelling landings [2]: 6 min
CC1COC(=O)C2C(C)CCC12 (centres unmarked) [pure dihydronepetalactone, dihydronepetalactone]															ants that ceased to feed [6]: 50-60%
